The NIST ThermoML archive (doi:10.1016/j.jct.2015.09.031)
Numbers after ± are expanded uncertainties.

Assay: molar heat capacity at constant pressure
Details: Liquid, Flow calorimetry

CCOC(=O)/C=C/c1ccccc1 [ethyl trans-3-phenylpropenoate]
Details	molar heat capacity at constant pressure [J/K/mol]
306.7 K, 100 kPa	299.7 ± 3
306.7 K, 3970 kPa	297.7 ± 3
306.8 K, 7840 kPa	297.2 ± 3
306.9 K, 11640 kPa	295.5 ± 3
307.1 K, 15780 kPa	294.4 ± 3
315.8 K, 100 kPa	302.2 ± 3.1
315.8 K, 4120 kPa	301.9 ± 3.1
315.9 K, 8120 kPa	300.4 ± 3
316 K, 11870 kPa	299.4 ± 3
316.1 K, 15790 kPa	297.4 ± 3
325.2 K, 100 kPa	307.1 ± 3.1
325.5 K, 3970 kPa	304.6 ± 3.1
325.6 K, 8000 kPa	303 ± 3.1
325.8 K, 11720 kPa	301.8 ± 3
325.8 K, 16030 kPa	301 ± 3
334.6 K, 100 kPa	311.1 ± 3.1
334.8 K, 3970 kPa	309.5 ± 3.1
334.9 K, 8070 kPa	308 ± 3.1
335 K, 11750 kPa	306.6 ± 3.1
335.1 K, 16080 kPa	303.6 ± 3.1
345.1 K, 100 kPa	315.3 ± 3.2
345.2 K, 3910 kPa	313.4 ± 3.2
345.3 K, 7970 kPa	312 ± 3.2
345.4 K, 11840 kPa	310.1 ± 3.1
345.6 K, 15760 kPa	308.2 ± 3.1
355.3 K, 11990 kPa	313.5 ± 3.2
355.5 K, 16020 kPa	312.1 ± 3.2
355.6 K, 100 kPa	320.2 ± 3.2
355.7 K, 3930 kPa	316.6 ± 3.2
355.8 K, 7990 kPa	315.4 ± 3.2
366 K, 100 kPa	324.5 ± 3.3
366.3 K, 4210 kPa	321.3 ± 3.2
366.5 K, 8030 kPa	319.6 ± 3.2
366.6 K, 12140 kPa	318.6 ± 3.2
366.9 K, 16090 kPa	316.8 ± 3.2
375.6 K, 100 kPa	328.3 ± 3.3
375.8 K, 4120 kPa	326 ± 3.3
375.9 K, 8030 kPa	323.8 ± 3.3
376.2 K, 12180 kPa	321.6 ± 3.2
376.4 K, 16170 kPa	320.4 ± 3.2
385.6 K, 100 kPa	332.5 ± 3.4
385.9 K, 4170 kPa	330.4 ± 3.3
386.1 K, 8090 kPa	329.1 ± 3.3
386.3 K, 12160 kPa	327.2 ± 3.3
386.5 K, 16040 kPa	325.7 ± 3.3

CCCCCCC(=O)OCC [ethyl heptanoate]
Details	molar heat capacity at constant pressure [J/K/mol]
305.4 K, 100 kPa	318.3 ± 3.2
305.4 K, 4040 kPa	317.7 ± 3.2
305.4 K, 8190 kPa	317.3 ± 3.2
305.4 K, 12090 kPa	316.8 ± 3.2
305.5 K, 16070 kPa	316.4 ± 3.2
315.7 K, 100 kPa	322.5 ± 3.3
315.8 K, 4190 kPa	322 ± 3.3
315.9 K, 8150 kPa	321.6 ± 3.2
315.9 K, 12260 kPa	320.5 ± 3.2
316 K, 16160 kPa	319.6 ± 3.2
326.2 K, 16030 kPa	323.6 ± 3.3
326.5 K, 100 kPa	326.8 ± 3.3
326.5 K, 4140 kPa	325.9 ± 3.3
326.6 K, 8170 kPa	325.2 ± 3.3
326.6 K, 12110 kPa	324.3 ± 3.3
335.3 K, 100 kPa	330.3 ± 3.3
335.3 K, 4060 kPa	330.1 ± 3.3
335.4 K, 8050 kPa	328.6 ± 3.3
335.4 K, 12030 kPa	327.6 ± 3.3
335.5 K, 16070 kPa	326.9 ± 3.3
345.1 K, 100 kPa	334.2 ± 3.4
345.2 K, 4070 kPa	333.5 ± 3.4
345.6 K, 8230 kPa	332.5 ± 3.4
345.7 K, 12160 kPa	332.2 ± 3.4
345.7 K, 16230 kPa	330.5 ± 3.3
354.2 K, 100 kPa	337.8 ± 3.4
354.2 K, 4120 kPa	337.3 ± 3.4
354.3 K, 8010 kPa	336.5 ± 3.4
354.4 K, 12390 kPa	335.6 ± 3.4
354.5 K, 16250 kPa	334.5 ± 3.4
364.9 K, 100 kPa	342.1 ± 3.5
365.3 K, 3870 kPa	341.3 ± 3.4
365.6 K, 8320 kPa	340.3 ± 3.4
365.7 K, 12160 kPa	339.5 ± 3.4
365.8 K, 15950 kPa	338.3 ± 3.4
374.8 K, 100 kPa	346.1 ± 3.5
375 K, 3980 kPa	345.5 ± 3.5
375.5 K, 8020 kPa	344 ± 3.5
375.7 K, 12070 kPa	342.6 ± 3.5
375.9 K, 16040 kPa	341.4 ± 3.4
384 K, 100 kPa	349.8 ± 3.5
385 K, 4020 kPa	349.1 ± 3.5
385.4 K, 8040 kPa	347.1 ± 3.5
385.5 K, 11880 kPa	346.1 ± 3.5
385.7 K, 15890 kPa	345.6 ± 3.5
